# Key:
# Assay in all cases: relative viability (nuclei count vs DMSO), 5 days (fraction); higher = more cells survive
# [1] = tested on: ABC-1
# Outline: (§1)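 Relative viability divides the nuclei count in treated wells by that in vehicle wells. Lung cancer cell lines were seeded in 1536-well plates, dosed by pin tool the next day, and fixed and stained after 5 days in one step with final 0.05% Triton X-100, 1% formaldehyde and 1 ug/ml Hoechst. Dosing was a single drug or a fixed anchor-drug dose plus five library-drug doses (not always all listed) in √10 steps, and values are medians of duplicate plates imaged at 4×.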
# [2] = tested on: COR-L23
# Outline: as §1
# [3] = tested on: EPLC-272H
# Outline: as §1
# [4] = tested on: HARA
# Outline: as §1
# [5] = tested on: HCC-15
# Outline: as §1
# [6] = tested on: HOP-62
# Outline: as §1
# [7] = tested on: LC-2-ad
# Outline: as §1
# [8] = tested on: LU99A
# Outline: as §1
# [9] = tested on: NCI-H1355
# Outline: as §1
# [10] = tested on: NCI-H1651
# Outline: as §1
# [11] = tested on: NCI-H1915
# Outline: as §1
# [12] = tested on: NCI-H1993
# Outline: as §1
# [13] = tested on: NCI-H2023
# Outline: as §1
# [14] = tested on: NCI-H2085
# Outline: as §1
# [15] = tested on: NCI-H2126
# Outline: as §1
# [16] = tested on: NCI-H2347
# Outline: as §1
# [17] = tested on: NCI-H358
# Outline: as §1
# [18] = tested on: NCI-H650
# Outline: as §1
# [19] = tested on: NCI-H838
# Outline: as §1
# [20] = tested on: PC-14
# Outline: as §1
# [21] = tested on: SW 1573
# Outline: as §1
# [22] = tested on: UMC-11
# Outline: as §1
structure (smiles),measurement,setting,value
O=c1cc(N2CCOCC2)oc2c(-c3cccc4c3sc3ccccc34)cccc12 + Cc1nc(Nc2ncc(C(=O)Nc3c(C)cccc3Cl)s2)cc(N2CCN(CCO)CC2)n1 [Dasatinib] (partner 0.075 µM),relative viability,[1]; first compound 0.01 µM,0.569
same,relative viability,[1]; first compound 0.03162 µM,0.561
same,relative viability,[1]; first compound 0.1 µM,0.582
same,relative viability,[1]; first compound 0.3162 µM,0.488
same,relative viability,[1]; first compound 1 µM,0.567
same,relative viability,[2]; first compound 0.01 µM,0.534
same,relative viability,[2]; first compound 0.03162 µM,0.496
same,relative viability,[2]; first compound 0.1 µM,0.566
same,relative viability,[2]; first compound 0.3162 µM,0.446
same,relative viability,[2]; first compound 1 µM,0.512
same,relative viability,[3]; first compound 0.01 µM,0.445
same,relative viability,[3]; first compound 0.03162 µM,0.424
same,relative viability,[3]; first compound 0.3162 µM,0.339
same,relative viability,[3]; first compound 1 µM,0.263
same,relative viability,[4]; first compound 0.01 µM,0.208
same,relative viability,[4]; first compound 0.03162 µM,0.282
same,relative viability,[4]; first compound 0.1 µM,0.276
same,relative viability,[4]; first compound 0.3162 µM,0.268
same,relative viability,[4]; first compound 1 µM,0.243
same,relative viability,[5]; first compound 0.01 µM,0.63
same,relative viability,[5]; first compound 0.03162 µM,0.675
same,relative viability,[5]; first compound 0.1 µM,0.697
same,relative viability,[5]; first compound 0.3162 µM,0.577
same,relative viability,[5]; first compound 1 µM,0.602
same,relative viability,[6]; first compound 0.01 µM,0.676
same,relative viability,[6]; first compound 0.03162 µM,0.676
same,relative viability,[6]; first compound 0.1 µM,0.672
same,relative viability,[6]; first compound 0.3162 µM,0.639
same,relative viability,[6]; first compound 1 µM,0.616
same,relative viability,[7]; first compound 0.01 µM,0.536
same,relative viability,[7]; first compound 0.03162 µM,0.688
same,relative viability,[7]; first compound 0.1 µM,0.775
same,relative viability,[7]; first compound 0.3162 µM,0.578
same,relative viability,[7]; first compound 1 µM,0.527
same,relative viability,[8]; first compound 0.01 µM,0.552
same,relative viability,[8]; first compound 0.03162 µM,0.596
same,relative viability,[8]; first compound 0.1 µM,0.741
same,relative viability,[8]; first compound 0.3162 µM,0.535
same,relative viability,[8]; first compound 1 µM,0.421
same,relative viability,[9]; first compound 0.01 µM,0.789
same,relative viability,[9]; first compound 0.03162 µM,0.692
same,relative viability,[9]; first compound 0.1 µM,0.695
same,relative viability,[9]; first compound 0.3162 µM,0.731
same,relative viability,[9]; first compound 1 µM,0.682
same,relative viability,[10]; first compound 0.01 µM,0.421
same,relative viability,[10]; first compound 0.03162 µM,0.414
same,relative viability,[10]; first compound 0.1 µM,0.395
same,relative viability,[10]; first compound 0.3162 µM,0.338
same,relative viability,[10]; first compound 1 µM,0.519
same,relative viability,[11]; first compound 0.01 µM,0.33
same,relative viability,[11]; first compound 0.03162 µM,0.334
same,relative viability,[11]; first compound 0.1 µM,0.314
same,relative viability,[11]; first compound 0.3162 µM,0.321
same,relative viability,[11]; first compound 1 µM,0.316
same,relative viability,[12]; first compound 0.01 µM,0.603
same,relative viability,[12]; first compound 0.03162 µM,0.595
same,relative viability,[12]; first compound 0.1 µM,0.657
same,relative viability,[12]; first compound 0.3162 µM,0.554
same,relative viability,[12]; first compound 1 µM,0.597
same,relative viability,[13]; first compound 0.01 µM,0.523
same,relative viability,[13]; first compound 0.03162 µM,0.677
same,relative viability,[13]; first compound 0.1 µM,0.612
same,relative viability,[13]; first compound 0.3162 µM,0.551
same,relative viability,[13]; first compound 1 µM,0.513
same,relative viability,[14]; first compound 0.01 µM,0.267
same,relative viability,[14]; first compound 0.03162 µM,0.241
same,relative viability,[14]; first compound 0.1 µM,0.253
same,relative viability,[14]; first compound 0.3162 µM,0.225
same,relative viability,[14]; first compound 1 µM,0.219
same,relative viability,[15]; first compound 0.01 µM,0.66
same,relative viability,[15]; first compound 0.03162 µM,0.631
same,relative viability,[15]; first compound 0.1 µM,0.609
same,relative viability,[15]; first compound 0.3162 µM,0.611
same,relative viability,[15]; first compound 1 µM,0.533
same,relative viability,[16]; first compound 0.01 µM,0.316
same,relative viability,[16]; first compound 0.03162 µM,0.284
same,relative viability,[16]; first compound 0.1 µM,0.265
same,relative viability,[16]; first compound 0.3162 µM,0.315
same,relative viability,[16]; first compound 1 µM,0.283
same,relative viability,[17]; first compound 0.01 µM,0.179
same,relative viability,[17]; first compound 0.03162 µM,0.145
same,relative viability,[17]; first compound 0.1 µM,0.201
same,relative viability,[17]; first compound 0.3162 µM,0.182
same,relative viability,[17]; first compound 1 µM,0.167
same,relative viability,[18]; first compound 0.03162 µM,0.493
same,relative viability,[18]; first compound 0.1 µM,0.314
same,relative viability,[18]; first compound 0.3162 µM,0.512
same,relative viability,[18]; first compound 1 µM,0.405
same,relative viability,[19]; first compound 0.01 µM,0.278
same,relative viability,[19]; first compound 0.03162 µM,0.301
same,relative viability,[19]; first compound 0.1 µM,0.319
same,relative viability,[19]; first compound 0.3162 µM,0.294
same,relative viability,[19]; first compound 1 µM,0.271
same,relative viability,[20]; first compound 0.01 µM,0.237
same,relative viability,[20]; first compound 0.03162 µM,0.267
same,relative viability,[20]; first compound 0.1 µM,0.276
same,relative viability,[20]; first compound 0.3162 µM,0.257
same,relative viability,[20]; first compound 1 µM,0.237
same,relative viability,[21]; first compound 0.01 µM,0.463
same,relative viability,[21]; first compound 0.03162 µM,0.482
same,relative viability,[21]; first compound 0.1 µM,0.535
same,relative viability,[21]; first compound 0.3162 µM,0.546
same,relative viability,[21]; first compound 1 µM,0.475
same,relative viability,[22]; first compound 0.01 µM,0.452
same,relative viability,[22]; first compound 0.03162 µM,0.471
same,relative viability,[22]; first compound 0.1 µM,0.487
same,relative viability,[22]; first compound 0.3162 µM,0.439
same,relative viability,[22]; first compound 1 µM,0.527
